Where two headings read alike, the source gives them in different places.
Columns and labels:
[1] = system: Arabidopsis thaliana T1 plants (At-MTHFR66); settings: 560 g ae/ha dicamba (1 × dicamba) sprayed
Text: (§1) Arabidopsis thaliana was first transformed with the MTHFR66 gene. T1 transformants were initially selected from the background of untransformed seeds using a glufosinate selection scheme. The plants that were transformed with the recombinant expression vector DBN111101 were Arabidopsis thaliana plants (At mMTHFR66) into which an optimized MTHFR66 nucleotide sequence located in the chloroplast was introduced, and the plants that were transformed with the recombinant expression vector DBN111101N were Arabidopsis thaliana plants (At MTHFR66) into which a natural MTHFR66 nucleotide sequence located in the chloroplast was introduced. […] Arabidopsis thaliana T1 plants (At-mMTHFR66) into which an optimized MTHFR66 nucleotide sequence was introduced, Arabidopsis thaliana T1 plants (At-MTHFR66) into which a natural MTHFR66 nucleotide sequence was introduced and wild-type Arabidopsis thaliana plants (18 days after sowing) were tested for the herbicide tolerance effect to dicamba.
(§2) Arabidopsis thaliana T1 plants into which an optimized MTHFR66 nucleotide sequence was introduced, Arabidopsis thaliana T1 plants into which a natural MTHFR66 nucleotide sequence was introduced and wild-type Arabidopsis thaliana plants were sprayed with dicamba (560 g ae/ha, 1-fold field concentration) and a blank solvent (water) respectively. Plants were counted for the tolerance situations 7 days and 14 days after spraying: those having a consistent growth status with the blank solvent (water) group after 7 days were classified as highly resistant plants, those having curled rosette leaves after 7 days were classified as moderately resistant plants, those still not capable of bolting after 14 days were classified as lowly resistant plants, and those dead after 14 days were classified as non-resistant plants. Since each Arabidopsis thaliana T1 plant was an independent transformation event, a significant difference in individual T1 responses could be expected at a given dose. The results were shown as Table 1 and FIG. 9.

[2] = system: wild-type Arabidopsis thaliana plants; settings: 560 g ae/ha dicamba (1 × dicamba) sprayed
Text: as §1, §2

[3] = system: Arabidopsis thaliana T1 plants (At-mMTHFR66); settings: 560 g ae/ha dicamba (1 × dicamba) sprayed
Text: as §1, §2

[4] = system: wild-type maize plants (CK); settings: 4480 g ae/ha dicamba (8 × dicamba), V5-V6 stage, 21 days after spraying
Text: (§3) The maize plants into which the optimized MTHFR66 nucleotide sequence was introduced, the maize plants into which the natural MTHFR66 nucleotide sequence was introduced and wild-type maize plants (at V5-V6 stage) were respectively tested for the herbicide resistance effect to dicamba.
(§4) The maize plants into which the optimized MTHFR66 nucleotide sequence was introduced, the maize plants into which the natural MTHFR66 nucleotide sequence was introduced and wild-type maize T1 hybrid plants (at V5-V6 stage) were taken and sprayed with a dicamba herbicide (4480 g ae/ha, 8-fold field concentration) and a blank solvent (water) respectively. 21 days after spraying, the support root development situation was collected. A total of three strains (S1, S2 and S3) of Zm-mMTHFR66, a total of two strains (S4 and S5) of Zm-MTHFR66, and a total of 1 strain of wild type (CK) were taken; and 10-15 plants were selected from each strain and tested.

[5] = system: maize plants (Zm-mMTHFR66); settings: 4480 g ae/ha dicamba (8 × dicamba), V5-V6 stage, 21 days after spraying
Text: as §3, §4

[6] = system: maize plants (Zm-MTHFR66); settings: 4480 g ae/ha dicamba (8 × dicamba), V5-V6 stage, 21 days after spraying
Text: as §3, §4

[7] = Hydrolase functional determination and product identification of MTHFR66 protein; assay type: biochemical; settings: absence of the electron acceptor NAD+
Experimental: Enzymatic reaction system (300 μL): containing 0.2 mg of MTHFR66, 1 mM 5-methyl-tetrahydrofolate (5-CH3—H4F) and a buffer system of Tris-HCl at a concentration of 100 mM (pH 8.0), which were reacted in a water bath at a temperature of 30° C. for 1 hour, then kept in boiling water for 1 min, after which the reaction was terminated. The reaction solution was lyophilized, dissolved by adding 300 μl of 0.1 mol/L KH2PO4 (pH 6.8, 1% ascorbic acid and 0.1% β-mercaptoethanol), filtered using a filter membrane (with a pore size of 0.22 μm), and detected using high performance liquid chromatography. Liquid chromatography conditions were: mobile phase: 0.05 mol/l KH2PO4 (pH 3.0):acetonitrile (90:10, V/V), Zorbax C218 ODS Spherex reversed phase column (5 μm, 4.6 mm×250 mm, Agilent, USA), column temperature of 23° C., UV-detector, with a detection wavelength of 298 nm, a sample injection volume of 20 μl, and a flow rate of 1.0 mL/min. Quantification was performed by peak area according to the external standard method.
Metabolites were identified through HPLC-MS (high performance liquid chromatography-mass spectrum) under the conditions as follows: mobile phase: 0.05 mol/l KH2PO4 (pH 3.0):acetonitrile (90:10, V/V), Zorbax XDB-C18, 5 cm×0.46 cm, 1.8 mm reversed phase column (5 μm, 4.6 mm×250 mm, Agilent, USA), and a flow rate of 0.25 mL/min. […]

[8] = Determination of enzymatic activity of MTHFR66 protein (dicamba to DCSA, HPLC); assay type: biochemical
Experimental: Enzymatic reaction system (300 μL): containing 1 mM substrate (dicamba), 0.2 mg of MTHFR66, 1 mM tetrahydrofolate (THF) and a buffer system of Tris-HCl at a concentration of 100 mM (pH 8.0), which were reacted in a water bath at a temperature of 30° C. for 1 hour, then kept in boiling water for 1 min, after which the reaction was terminated. The reaction solution was lyophilized, and then dissolved by adding 300 μl of methanol. The amount of the generated intermediate metabolite of dicamba, 3,6-dichlorosalicylic acid (DCSA), was detected using high performance liquid chromatography (HPLC). An enzymatic activity unit is defined as: the amount of enzyme required for degradation of dicamba to generate 1 nmol of product DCSA at pH 8.0, at a temperature of 30° C. within 1 min, and is expressed as U.

[9] = Dicamba demethylation function of MTHFR66 protein in the presence of trace tetrahydrofolate; assay type: biochemical; settings: 1 mM dicamba, 30° C., 1 hour
Experimental: […] The reaction solution was lyophilized, and then dissolved by adding 300 μl of methanol. The amount of the generated intermediate metabolite of dicamba, DCSA, was detected using high performance liquid chromatography (HPLC).

[10] = curled rosette leaves after 7 days
[11] = growth consistent with water group after 7 days
[12] = not capable of bolting after 14 days

## COc1c(Cl)ccc(Cl)c1C(=O)O [dicamba, 3,6-dichloro-o-anisic acid]
[1]; [10]
  Moderately resistant (number of plants): 3
[1]; dead after 14 days
  Non-resistant (number of plants): 19
[1]; [11]
  Highly resistant (number of plants): 0
[1]; [12]
  Lowly resistant (number of plants): 2
[2]; [10]
  Moderately resistant (number of plants): 0
[2]; dead after 14 days
  Non-resistant (number of plants): 22
[2]; [11]
  Highly resistant (number of plants): 0
[2]; [12]
  Lowly resistant (number of plants): 0
[3]; [10]
  Moderately resistant (number of plants): 18
[3]; dead after 14 days
  Non-resistant (number of plants): 5
[3]; [11]
  Highly resistant (number of plants): 0
[3]; [12]
  Lowly resistant (number of plants): 0
[4]
  Proportion of normally developed support root: 0%
  Support root abnormally developed (number of plants): 16
  Support root normally developed (number of plants): 0
[5]; strain S1 (Zm-mMTHFR66)
  Proportion of normally developed support root: 92.31%
  Support root abnormally developed (number of plants): 1
  Support root normally developed (number of plants): 12
[5]; strain S2 (Zm-mMTHFR66)
  Proportion of normally developed support root: 90.91%
  Support root abnormally developed (number of plants): 1
  Support root normally developed (number of plants): 10
[5]; strain S3 (Zm-mMTHFR66)
  Proportion of normally developed support root: 83.33%
  Support root abnormally developed (number of plants): 2
  Support root normally developed (number of plants): 10
[6]; strain S4 (Zm-MTHFR66)
  Proportion of normally developed support root: 16.67%
  Support root abnormally developed (number of plants): 10
  Support root normally developed (number of plants): 2
[6]; strain S5 (Zm-MTHFR66)
  Proportion of normally developed support root: 30.77%
  Support root abnormally developed (number of plants): 9
  Support root normally developed (number of plants): 4

B1: MTHFR66 protein: herbicide resistant protein, methyltetrahydrofolate reductase, amino acid sequence SEQ ID NO: 2 (289 amino acids) (protein, listed as Sphingomonas paucimobilis)
chain: MGSPVMAIDCDSVPDNLVHCFSIEMTGKDIDALQAAAPLLPPGTSVAVTFLPGENYETRIAACKAVRDLGFEPMPHFSARRIQDEAEFHDFLHAVVAEAKVRRCFVIAGDAAEPEGPYADSMQLIASGAFEAAGIDLIGVAGHPEGHPNMTAGEATAVLRAKTDEIERRGMAALIVTQFTFDAARTLDWLAEVRQAGIDVPVLLGVPGPAGIKTLLRFAARCGVGASASVLSKYGISIGHLLGSAGPDRFVDALRAGIGEQHGHVRLHFYPFGGLDKTARWIADYARKH
[7]
  product of 5-methyl-tetrahydrofolate metabolism (HPLC-MS): can hydrolyze 5-methyl-tetrahydrofolate to tetrahydrofolate
[7]; 1 mM 5-methyl-tetrahydrofolate, 30° C., 1 hour
  transformation of 5-methyl-tetrahydrofolate (HPLC): can transform 5-methyl-tetrahydrofolate to other substances
[8]; 1 mM dicamba, 0.2 mg MTHFR66, 1 mM THF, Tris-HCl pH 8.0, 30° C., 1 hour
  DCSA generated within 1 hour: 0.15 mM
[8]; U = enzyme generating 1 nmol DCSA from dicamba at pH 8.0, 30° C. within 1 min
  specific enzymatic activity: 3.75 U/mg
[9]; in the presence of 0.01 mM tetrahydrofolate
  demethylation of dicamba to DCSA: can demethylate dicamba to generate DCSA
[9]; in the presence of 0.5 mM of tetrahydrofolate
  demethylation of dicamba to DCSA: can fully demethylate 1 mM dicamba to generate DCSA

Source: patent US11365425B2, “Resistant protein for use in herbicide, encoding gene and application thereof” (BEIJING DABEINONG BIOTECHNOLOGY CO., LTD., priority 2016, dated 2022)
